Values after ≈ are worked out from the molar mass of the structure shown.
Columns and labels:
[1] = test system: monoclonal antibody of the present invention (CMU-1); assay: indirect competitive inhibition ELISA, cross reactivity test with monoclonal antibody CMU-1; assay type: binding, mouse; details: for percent absorption (reactivity) with monoclonal antibody CMU-1: compound final concentration 0.5 mg/mL, uracil-BSA coated plate, absorbance at 415 nm; for dose-dependent response of the antibody to the compound / ED30 (concentration when the percent absorption reached 30%) / binding ability relative to pseudouridine: monoclonal antibody CMU-1; for binding ability relative to pseudouridine: ratio of ED30 values
Method: Into a 96-well immunoplate, uracil-BSA complex (10 μg/mL as reduced to BSA) was placed at 50 μL/well, and allowed to stand overnight at 4° C. Subsequently, the immunoplate was washed 7 times with PBS containing 0.1% polyoxyethylene(20) sorbitan monolaurate (product of Wako Pure Chemical Industries, Ltd.; a product equivalent to Tween 20) (pH 7.3-7.7, product of Nissui Chemical; hereinafter referred to as PBS-T). Subsequently, 0.2% gelatin (200 μL) was added to each well, and the immunoplate was left for 2 hours at 37° C., or overnight at 4° C.
Subsequently, the immunoplate was washed five times with PBS-T, and one of the below-described samples (50 μL/well) was added to the immunoplate, which was then left for 1 hour at 37° C. • (i) a reaction mixture prepared by mixing the supernatant of the hybridoma culture obtained in Example 3 (hereinafter referred to as the hybridoma culture supernatant) (30 μL) and PBS (30 μL) for reaction at 37° C. for one hour; • a (ii) a reaction mixture obtained by mixing the hybridoma culture supernatant (30 μL) and a solution (30 μL) of uracil in PBS (uracil concentration: 1 mg/mL) for reaction at 37° C. for one hour; and • (iii) 1 μg/mL healthy mouse IgG (product of Biological). Subsequently, the wells were washed five times with PBS-T, and to each well was added alkaline-phosphatase-labeled (AP-labeled) anti-mouse-multivalent-immunoglobulin antibody (product of Sigma), which had been 1,000-fold diluted with 0.1% gelatin, (50 μL). Subsequently, the mixture was allowed to stand for one hour at 37° C. Subsequently, the wells were washed five times with PBS-T. A solution of disodium p-nitrophenylphosphate (product of Wako Chemical Industries, Ltd.) dissolved in substrate buffer (1 mg/mL) was added to each well (100 μL/well), and left for 30 minutes at 37° C. To the reaction mixtures, 2N NAOH (50 μL/well) was added and then mixed by use of a platemixer, to thereby stop the reaction. Absorbance at 415 nm was measured by use of a microplate reader.
The percent absorption was calculated by use of the following equation: [formula] wherein, • ODPBS: Absorbance measured by means of ELISA for a sample in which the hybridoma culture supernatant had been pre-treated only with PBS), • ODuracil: Absorbance measured by means of ELISA for a sample in which the hybridoma culture supernatant had been pre-treated with uracil in PBS), and • ODcontrol: Absorbance measured in ELISA of a sample treated only with heal thy mouse IgG).
By use of the hybridoma culture supernatant obtained from the above-described incubation, the reactivity of the monoclonal antibody, CMU-1, of the present invention was studied through the indirect competitive inhibition ELISA described in Example 4.
Specifically, an aliquot (50 μL) of uracil-BSA complex (10 μg/mL) was placed in each well of a 96-well immunoplate (Immunoplate I, product of Nunc), and allowed to stand overnight at 4° C. Each well was washed five times with PBS-T (200 μL) containing 0.1% Tween 20. Subsequently, to each well of the immunoplate, PBS (200 μL) containing 0.2% gelatin serving as a blocking agent was added, and the mixture was allowed to stand overnight at 4° C. Each well was again washed five times with PBS-T, to thereby prepare a plate.
Meanwhile, each of the follow samples: • (i) a mixture of the aforementioned hybridoma culture supernatant (30 μL) and PBS (30 μL); • (ii) a reaction mixture obtained by mixing the hybridoma culture supernatant (30 μL) and PBS (30 μL) containing uracil at a concentration of 0.03-1.0 mg/mL and causing reaction to proceed at 37° C. for one hour; and • (iii) […] healthy mouse IgG (product of Biologicals) was added to a 96-well plate to which the above antigen had been adsorbed (50 μL/well), and the plate was left to stand for one hour at 37° C. […]

[2] = test system: monoclonal antibody (SU-1) derived from hybridoma FERM BP-6141; assay: indirect competitive inhibition ELISA, cross reactivity test with comparative monoclonal antibody SU-1; assay type: binding; details: compound final concentration 0.5 mg/mL; uracil-BSA coated plate; absorbance at 415 nm
Method: Meanwhile, each of the follow samples: • (i) a mixture of the aforementioned hybridoma culture supernatant (30 μL) and PBS (30 μL); • (ii) a reaction mixture obtained by mixing the hybridoma culture supernatant (30 μL) and PBS (30 μL) containing uracil at a concentration of 0.03-1.0 mg/mL and causing reaction to proceed at 37° C. for one hour; and • (iii) […] healthy mouse IgG (product of Biologicals) was added to a 96-well plate to which the above antigen had been adsorbed (50 μL/well), and the plate was left to stand for one hour at 37° C. Subsequently, the plate was washed five times with PBS-T, and to each well, aliquots (50 μL) of AP-labeled anti-mouse antibody (serving as the second antibody, product of Sigma), which had been 1,000-fold diluted with PBS containing 0.1% gelatin, were added, and the mixtures were allowed to stand for one hour at 37° C. Subsequently, each well was washed five times with PBS-T. An enzyme substrate buffer solution (p-nitrophenylphosphate, 1 mg/mL, pH 9.8) was added to each well (100 μl/well), and left to stand for 30 minutes at 37° C. To the reaction mixtures, 2N NaOH ([…]) was added, to thereby stop the reaction. Absorbance at 415 nm was measured by use of a microplate reader. For comparison, the same procedure was independently performed on hybridoma FERM BP-6141 described in PCT publication No. WO99/20748. The percent absorption was calculated from the above-described equation.
In a manner similar to that of Example 7, reactivity of the monoclonal antibody of the present invention with other compounds was investigated. Specifically, the procedure of step (ii) of Example 7 for investigating inhibition with uracil was repeated, except that pseudouridine, dihydrouracil, dihydrothymine, thymine, cytosine, or N-carbamyl-β-alanine (1 mg/mL) was used instead of uracil (1 mg/mL), to thereby investigate reactivity of the monoclonal antibody of the present invention with uracil compounds. As a comparative antibody, a monoclonal antibody (SU-1) derived from hybridoma “FERM BP-6141” described in WO 99/20748 was used.

[3] = test system: monoclonal antibody for psuedouridine; details: prior art antibody used for diagnosing a progressive cancer; cited from earlier work

Row | binding ability relative to pseudouridine [1] [times] | Structure (SMILES) | percent absorption (reactivity) with monoclonal antibody CMU-1 [1] | dose-dependent response of the antibody to the compound [1] | percent absorption (reactivity) with comparative monoclonal antibody SU-1 [2] [%] | ED30 (concentration when the percent absorption reached 30%) [1] [µg/mL] | reactivity with the monoclonal antibody for pseudouridine [3] | concentration range in which the compound is detected ([1]; monoclonal antibody CMU-1, FIG. 1) [mg/mL]
1 | – | Nc1cc[nH]c(=O)n1 [Cytosine] | 15% | no dose-dependent response | 15 | – | – | –
2 | – | CC1CNC(=O)NC1=O (stereo not shown) [Dihydrothymine] | 22% | no dose-dependent response | – | – | – | –
3 | – | O=C1CCNC(=O)N1 [Dihydrouracil] | 8% | no dose-dependent response | 2 | – | – | –
4 | – | NC(=O)NCCC(=O)O [N-Carbamyl-β-alanine] | 8% | no dose-dependent response | 91 | – | – | –
5 | – | O=c1[nH]cc([C@@H]2O[C@H](CO)[C@@H](O)[C@H]2O)c(=O)[nH]1 [Pseudouridine] | 32% | did exhibit dose-dependent response | 26 | 390 (≈ 1600 µM) | 95-99% | –
6 | 26 | Cc1c[nH]c(=O)[nH]c1=O [Thymine] | 91-97% | exhibited dose-dependent response | 5 | 15 (≈ 119 µM) | – | –
7 | 13 | O=c1cc[nH]c(=O)[nH]1 [Uracil] | 95-96% | exhibited dose-dependent response | 41 | 30 (≈ 268 µM) | 30-40% | 0.005 to 0.5

Source: US6927035B1, “Antiuracil monoclonal antibody” (Taiho Pharmaceutical Co., LTD, priority 1999, dated 2005)
